Each structure is given as a SMILES string.

From patent publication US20040147531A1, “Amidine derivatives for treating amyloidosis” (priority 2001, published 2004) come the findings set out here.

What all share (parameters): key: “+” = active; “−” = inactive; “pr” = promoting
For one experiment, the target named is T1, Aβ (1-40) (Homo sapiens, UniProt P05067).
T1 construct: Aβ peptide: Aβ (1-40) 95% purity (American Peptide Company, Inc, Sunnyvale, Calif. USA); purchased American Peptide Company, Inc, Sunnyvale, Calif; USA
T1 sequence (P05067 672-711 limits assumed): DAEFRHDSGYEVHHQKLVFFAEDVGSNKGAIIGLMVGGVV
The experiment in a line: thioflavin T fluorescent assay (ThT assay) for fibrillogenesis. The note with it: Aβ (1-40) 20 μM, 5 μM Thioflavin T, pH 7.40, 37° C.; inhibition of fibrillogenesis. In kind it is biochemical. An excerpt: Test compounds were purchased from commercial sources or synthesized and screened by thioflavin T fluorescent assay (“ThT assay”). Alternatively, one could screen test compounds by circular dichroism (“CD”), electron microscopy (“EM”), or mass spectroscopy (“MS”) assays. The MS assay gives data on the ability of compounds to bind to an amyloid protein, whereas the ThT, EM, and CD assays give data on inhibition of fibrillogenesis. The thioflavin T fluorescent assay for fibrillogenesis is based on the principle that the fluorescent dye, thioflavin T, binds specifically to fibrillar, but not to unaggregate Aβ peptide (LeVine III, H., 1993, Protein Science 2:404-410). Upon binding, thioflavin T develops a characteristic fluorescence (Naiki, H., et al., 1996, Lab. Invest. 74: 374-383) which can be easily detected. The dye is believed to interact with the stacked cross-β pleated sheets, the common structural motif of all amyloid (LeVine III, H., 1995, Amyloid: Int. J. Exp. Clin Invest. 2:1.6). Thioflavin T is widely used to assay the effect of compounds on fibrillogenesis of Aβ peptide and other amyloid proteins (Bronfman, P. C., et al., 1995, Neuroscience Lett. 218:201-203). In this assay, test compounds are incubated with a solution of Aβ (1-40) (20 μM) or IAPP (10 μM) containing 5 μM Thioflavin T, in 0.02M Tris/0.02M acetate/0.15M NaCl/0.005% azide/pH 7.40 at 37° C. in sealed 384 well microplates. Readings (ex 430 nm/em 485 nm) are taken at various time intervals with a microplate fluorescence reader. An increase in fluorescence signifies the appearance of amyloid or intermediates in the production of amyloid, as illustrated in the Figures (in general, a compound which inhibits fibrillogenesis produces lower fluorescence in the assay because the fluorescence of ThT is greater when bound to fibrils). Protocol: Aβ peptide: Aβ (1-40) 95% purity (American Peptide Company, Inc, Sunnyvale, Calif. USA) is disaggregated in trifluoroacetic acid and filtered through a […] filter, (Whatman Anotop 25 plus, 0.02 μm, Catalogue no. 6809 4102) in hexafluoroisopropanol (HFIP). Solutions of Aβ (1-40) or IAPP at 600 μm in HFIP are stored at −80° C. Assay mixture: The mixture is prepared as two solutions which are combined upon addition to the 384 well microplate (Corning Costar cat. 3705). i) Solution A consists of test compounds in 0.02M Tris/0.02M acetate/0.15M NaCl/0.01% azide at pH 7.40 or buffer alone (control), ii) Solution B consists of Aβ (1-40) 40 μM or IAPP 20 μM, Thioflavin T […] in 0.02M Tris/0.02M acetate/0.15M NaCl at pH 7.40. This solution is prepared by drying the Aβ peptide under nitrogen and then resuspending this in 0.04M Tris base with 15 minutes sonication. An equal volume of 0.04M acetic acid containing 0.3 M NaCl is added and the solution is adjusted to 7.40±0.02. A small volume of 20 mM Thioflavin T is added to the solution to give a final 5 μM concentration of Thioflavin T. iii) The microplate is loaded with 40 μL of solution A followed by 40 μL of solution B which gives a final 20 μM Aβ (1-40) or 10 μM IAPP, 5 μM Thioflavin T, and a given concentration of test compound in 0.02M Tris/0.02M acetate/0.15M NaCl/0.005% azide, pH 7.40. The plate is sealed and loaded into the microplate fluorescence reader. Fluorescence measurement data analysis: The HTS-7000 Bio Assay Reader, Perkin Elmer, is used to perform kinetic runs of about 1 day. Readings were taken at 15 minute intervals, with one minute shaking before each read. Bandpass filters used were: excitation 430 nm, emission […].

The target in the next experiment is T2, Aβ40 (Homo sapiens, UniProt P05067).
T2 construct: 200 μM of a test compound and 20 μM of solubilized Aβ40
T2 sequence (P05067 672-711 limits assumed): as above
The experiment in a line: mass spectroscopy (MS) assay, binding to Aβ. The following applies: 200 μM test compound, 20 μM solubilized Aβ40, pH 7.4; ability to bind to Aβ. On the procedure: Test compounds were purchased from commercial sources or synthesized and screened by thioflavin T fluorescent assay (“ThT assay”). Alternatively, one could screen test compounds by circular dichroism (“CD”), electron microscopy (“EM”), or mass spectroscopy (“MS”) assays.
And in the mass spectroscopy (“MS”) assay, samples were prepared as aqueous solutions containing 20% ethanol, 200 μM of a test compound and 20 μM of solubilized Aβ40. The pH value of each sample was adjusted to 7.4 (±0.2) by addition of 0.1% aqueous sodium hydroxide. The solutions were then analyzed by electrospray ionization mass spectroscopy using a Waters ZQ 4000 mass spectrometer. Samples were introduced by direct infusion at a flow-rate of 25 μL/min within 2 hr. after sample preparation. The source temperature was kept at 70° C. and the cone voltage was 20 V for all the analysis. Data were processed using Masslynx 3.5 software.

For experiment [1], the target named is T3, Aβ (Homo sapiens, UniProt P05067).
T3 construct: Aβ peptide: Aβ (1-40) 95% purity (American Peptide Company, Inc, Sunnyvale, Calif. USA)
T3 sequence (P05067 672-711 limits assumed): as above
The experiment in a line: electron microscopy (EM) assay, inhibition of fibrillogenesis. In kind it is biochemical. The following applies: soluble Aβ. The source says: (§1) Test compounds were purchased from commercial sources or synthesized and screened by thioflavin T fluorescent assay (“ThT assay”). Alternatively, one could screen test compounds by circular dichroism (“CD”), electron microscopy (“EM”), or mass spectroscopy (“MS”) assays. The MS assay gives data on the ability of compounds to bind to an amyloid protein, whereas the ThT, EM, and CD assays give data on inhibition of fibrillogenesis.
Similarly, in the electron microscopy (“EM”) assay, each sample was sonicated for 1 min to disrupt large clumps before testing. The sample (5-μL aliquot) was placed on freshly cleaved mica and allowed to air dry. The mica was placed in a Balzers High-vacuum, Freeze-Etch Unit (model 301), shadowed with platinum (30° angle), and coated with a carbon film. The replica was removed from the mica by flotation and transferred onto a 300-mesh copper grid. Samples were examined using a Joel 2000 FX transmission electron microscope. […]

The target of experiment [2] is T3, Aβ. The experiment in a line: circular dichroism (CD) assay, inhibition of fibrillogenesis. In kind it is biochemical. The following applies: soluble Aβ, 37° C., 190-240 nm.
Excerpt: as §1
In the circular dichroism (“CD”) assay, samples were transferred to 0.1-cm path-length quartz cuvettes and CD scans were taken using a Jasco J-715 spectropolarimeter. Readings were taken at 37° C., between 190 and 240 nm, with a resolution of 0.1 nm and a bandwidth of 1 nm. […]
(CD spectra are sensitive to the conformation of chiral molecules.)

`N=C(N)c1ccc(OCCCCOc2ccc(C(=N)N)cc2)cc1` [Compound 5]: at Aβ (1-40), the “ThT Assay” value is listed as “+”. Moreover, on Aβ40, the “MS Assay” value is on record as “+”.

On to `N=C(N)c1ccc(OCc2cccc(COc3ccc(C(=N)N)cc3)c2)cc1` [Compound 24], for which the “ThT Assay” value at Aβ (1-40) is on record as “+”. Besides, the EM entry on Aβ [1] was “+”. Moreover, the “MS Assay” value at Aβ40 is recorded as “+”.

Take `c1cc(COc2ccc(C3=NCCN3)cc2)cc(COc2ccc(C3=NCCN3)cc2)c1` [Compound 25]: the “ThT Assay” value at Aβ (1-40) is on record as “+”. Moreover, the EM result at Aβ [1] is “+”.

With `N=C(N)c1ccc(OCc2ccc(COc3ccc(C(=N)N)cc3)cc2)cc1` [Compound 26], the “ThT Assay” value at Aβ (1-40) was “+”. Moreover, the EM entry at Aβ [1] is given as “−”.

Turning to `c1cc(COc2ccc(C3=NCCN3)cc2)ccc1COc1ccc(C2=NCCN2)cc1` [Compound 27], on Aβ (1-40), the “ThT Assay” value is given as “pr”.

As to `N=C(N)c1ccc(-c2cc3ccc(C(=N)N)cc3[nH]2)cc1` [Compound 28], the “ThT Assay” value at Aβ (1-40) is on record as “+”. At Aβ [2], the CD result is listed as “+”. In addition, on Aβ [1], the EM result is “+”.

Turning to `N=C(N)c1ccc(OCCC(O)COc2ccc(C(=N)N)cc2)cc1` (stereo not drawn) [Compound 31], the “ThT Assay” value at Aβ (1-40) was “+”. In addition, on Aβ [1], the EM result is given as “−”. Also, the “MS Assay” value on Aβ40 is “+”.

With `c1cc(C2=NCCN2)ccc1OCCOCCOc1ccc(C2=NCCN2)cc1` [Compound 35], on Aβ (1-40), the “ThT Assay” value is listed as “+”. For the same compound, the EM result at Aβ [1] is “−”. For the same compound, at Aβ40, the “MS Assay” value is reported as “+”.

Take `N=C(N)CCCOc1ccc(C(=N)N)cc1` [Compound 41]: on Aβ (1-40), the “ThT Assay” value is listed as “+”. Besides, at Aβ40, the “MS Assay” value is reported as “+”.

For the compound `CC(C)NC(=N)c1cccc(COc2cccc3c(OCc4cccc(C(=N)NC(C)C)c4)cccc23)c1` [Compound 60], the CD entry at Aβ [2] is recorded as “+”. For the same compound, the EM result at Aβ [1] is “−”. In addition, on Aβ40, the “MS Assay” value is on record as “+”.

Take `CC(C)NC(=N)c1ccc(COc2cccc3c(OCc4ccc(C(=N)NC(C)C)cc4)cccc23)cc1` [Compound 61]: the CD entry on Aβ [2] is on record as “+”. For the same compound, at Aβ [1], the EM result was “+”. Also, the “MS Assay” value at Aβ40 is “+”.

With `CC(C)NC(=N)c1ccc(OCc2ccc(COc3ccc(C(=N)NC(C)C)cc3)c3ccccc23)cc1` [Compound 62], the CD result on Aβ [2] was “+”. Moreover, the EM entry on Aβ [1] is “+”. Besides, the “MS Assay” value at Aβ40 was “+”.

As for `CC(C)c1ccc(OCc2ccc(C(=N)N)cc2)cc1` [Compound 70], the CD result at Aβ [2] was “+”. Also, the EM entry at Aβ [1] was “+”. The “MS Assay” value at Aβ40 is listed as “+”.

`N=C(N)c1ccc(OCCCCCCCCCCCCOc2ccc(C(=N)N)cc2Br)c(Br)c1` [Compound 76]: the CD entry at Aβ [2] is “−”. Moreover, the EM entry at Aβ [1] was “+”. For the same compound, the “MS Assay” value on Aβ40 is listed as “+”.

`N=C(N)c1ccc(-c2cc(-c3cccc(C(=N)N)c3)no2)cc1` [Compound 83]: the CD result at Aβ [2] is given as “−”. At Aβ [1], the EM result is “+”. In addition, the “MS Assay” value on Aβ40 is listed as “+”.

As to `Cn1c(-c2nc3ccc(C(=N)N)cc3[nH]2)ccc1-c1nc2ccc(C(=N)N)cc2[nH]1` [Compound 103], the CD result at Aβ [2] is on record as “−”. Also, on Aβ [1], the EM result is “+”. The “MS Assay” value on Aβ40 is given as “+”.

Take `N=C(N)c1ccc2nc(-c3ccc(Cc4ccc(-c5nc6ccc(C(=N)N)cc6[nH]5)cc4)cc3)[nH]c2c1` [Compound 114]: at Aβ [2], the CD result is listed as “−”. On Aβ [1], the EM result is recorded as “+”. The “MS Assay” value at Aβ40 is reported as “+”.

With `N=C(N)c1ccc2nc(-c3ccc(C4CC4c4ccc(-c5nc6ccc(C(=N)N)cc6[nH]5)cc4)cc3)[nH]c2c1` (stereo not drawn) [Compound 115], the CD entry at Aβ [2] was “−”. The EM entry at Aβ [1] was “+”. Moreover, the “MS Assay” value on Aβ40 is given as “+”.

For the compound `N=C(N)c1ccc2nc(-c3ccc(CCc4ccc(-c5nc6ccc(C(=N)N)cc6[nH]5)s4)cc3)[nH]c2c1` [Compound 116], on Aβ [2], the CD result was “−”. On Aβ [1], the EM result was “+”. The “MS Assay” value at Aβ40 was “+”.

With `COc1ccc(-c2ccc(-c3ccc(C(=N)N)cc3)o2)cc1` [Compound 117], the CD entry at Aβ [2] is reported as “−”. The EM entry at Aβ [1] is on record as “+”. For the same compound, the “MS Assay” value on Aβ40 is listed as “+”.

For `N=C(N)c1ccc(-c2coc(-c3ccc(C(=N)N)cc3)c2)cc1` [Compound 120], the CD result at Aβ [2] is “−”. Also, the EM entry at Aβ [1] is “+”. Also, at Aβ40, the “MS Assay” value is recorded as “+”.

Consider `COc1cc(NC(=N)N)ccc1-c1ccc(-c2ccc(NC(=N)N)cc2OC)o1` [Compound 121], for which the CD result on Aβ [2] was “−”. For the same compound, on Aβ [1], the EM result is “+”. Also, the “MS Assay” value on Aβ40 was “+”.

Take `N=C(N)c1ccc(-c2ccc(-c3nc4ccccc4[nH]3)o2)cc1` [Compound 122]: the CD result at Aβ [2] is recorded as “+”. Also, the EM result on Aβ [1] is listed as “+”. Further, on Aβ40, the “MS Assay” value is recorded as “+”.

Regarding `COc1ccc(-c2ccc(-c3ccc(NC(=N)N)cc3)o2)cc1` [Compound 123], the CD result on Aβ [2] is reported as “−”. Moreover, the EM result at Aβ [1] is “+”. The “MS Assay” value on Aβ40 is “+”.

In the case of `CCc1ccc(CCc2ccc(-c3nc4ccc(C(=N)N)cc4[nH]3)cc2)cc1` [Compound 125], the CD result on Aβ [2] was “−”. Further, on Aβ [1], the EM entry is given as “+”. Further, the “MS Assay” value on Aβ40 is “+”.

Regarding `N=C(Nc1ccc(OCCCCCOc2ccc(NC(=N)c3ccccc3)cc2)cc1)c1ccccc1` [Compound 134], the CD entry on Aβ [2] is “+”. Also, the EM entry on Aβ [1] was “−”. Besides, on Aβ40, the “MS Assay” value is “+”.
